Inhibition and clearance data for one compound are collected here from ChEMBL document CHEMBL3352660, “Design, synthesis and pharmacological evaluation of novel polycyclic heteroarene ethers as PDE10A inhibitors: part II” (Bioorg Med Chem Lett, 2014).

For data set [1], the target named is Dual 3',5'-cyclic-AMP and -GMP phosphodiesterase 11A (Homo sapiens) (UniProt Q9HCR9). Nature of the data set: Inhibition of human recombinant PDE11A using [3H]-cAMP as substrate at 10 uM after 30 mins by two-step radiometric assay.
Data set [2] can be described thus: Plasma clearance in iv dosed Sprague-Dawley rat. The class given is ADME, organism-based.

Molecules are shown by their SMILES.

Chain of Dual 3',5'-cyclic-AMP and -GMP phosphodiesterase 11A (Homo sapiens) (Q9HCR9 whole entry, looked up): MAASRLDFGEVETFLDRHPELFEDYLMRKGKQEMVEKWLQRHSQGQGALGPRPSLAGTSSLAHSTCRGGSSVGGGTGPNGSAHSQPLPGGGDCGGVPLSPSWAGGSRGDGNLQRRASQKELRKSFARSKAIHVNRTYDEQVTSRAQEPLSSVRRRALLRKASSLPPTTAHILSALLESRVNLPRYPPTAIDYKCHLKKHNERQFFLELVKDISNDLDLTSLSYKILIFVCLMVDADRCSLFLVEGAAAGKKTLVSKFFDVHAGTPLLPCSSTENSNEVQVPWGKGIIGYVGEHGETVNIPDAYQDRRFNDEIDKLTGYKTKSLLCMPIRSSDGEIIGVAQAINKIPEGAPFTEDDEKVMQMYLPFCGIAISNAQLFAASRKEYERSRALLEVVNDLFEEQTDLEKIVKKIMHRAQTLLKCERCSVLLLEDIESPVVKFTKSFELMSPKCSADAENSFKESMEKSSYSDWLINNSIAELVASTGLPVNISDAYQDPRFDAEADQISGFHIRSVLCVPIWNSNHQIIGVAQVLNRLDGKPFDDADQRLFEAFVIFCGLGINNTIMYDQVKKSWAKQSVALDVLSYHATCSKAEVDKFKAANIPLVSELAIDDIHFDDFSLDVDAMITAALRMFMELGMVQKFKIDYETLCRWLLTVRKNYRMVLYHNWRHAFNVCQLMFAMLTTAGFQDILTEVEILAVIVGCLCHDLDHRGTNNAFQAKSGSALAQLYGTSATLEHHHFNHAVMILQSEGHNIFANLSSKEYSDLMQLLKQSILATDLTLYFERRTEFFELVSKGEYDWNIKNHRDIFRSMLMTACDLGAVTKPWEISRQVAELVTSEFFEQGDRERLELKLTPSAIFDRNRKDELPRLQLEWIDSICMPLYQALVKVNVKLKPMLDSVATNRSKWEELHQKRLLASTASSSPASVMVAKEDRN

With `Cn1cc(-c2ccc(Oc3nccnc3-c3ccncc3)cc2)c2ncccc21`, in data set [1], the inhibition came out at 11.2%. In addition, the clearance in data set [2] is 1.6 mL/min/kg.

The term inhibition denotes the drop in the measured response relative to a control, in per cent. As usually defined, the clearance is a measure of how efficiently the substance is removed, as volume per time. Low readings indicate a low capacity for elimination, high ones a high capacity for elimination.
